# Reference: ChEMBL document CHEMBL5260849, “Current advances in Vibrio harveyi quorum sensing as drug discovery targets” (Eur J Med Chem, 2020)
# Experiments:
# Vibrio harveyi [1] = assay: Antimicrobial activity against Vibrio harveyi BB120 assessed as decrease in swimming motility at 200 ug/ml incubated for 15 hrs by agar plate reader analysis; assay type: functional; parameters: scale not given: the % may be the effect or the level left; conditions: dose 200 µg/ml
# [2] = Inhibition of quorum-sensing system in Vibrio harveyi BB152 assessed as inhibition of QS-mediated bioluminescence at 0.02 to 200 uM incubated for 18 hrs by Luminescence assay; conditions: dose 0.02-200 µM
# [3] = Inhibition of quorum-sensing system in Vibrio harveyi MM77 assessed as inhibition of QS-mediated bioluminescence at 0.02 to 200 uM incubated for 18 hrs by Luminescence assay; conditions: dose 0.02-200 µM
# Vibrio harveyi [4] = assay: Antimicrobial activity against Vibrio harveyi MM30 assessed as decrease in swimming motility at 200 ug/ml incubated for 15 hrs by agar plate reader analysis; assay type: functional; parameters: scale not given: the % may be the effect or the level left; conditions: dose 200 µg/ml
# Vibrio harveyi [5] = assay: Antimicrobial activity against Vibrio harveyi BB152 assessed as decrease in swimming motility at 200 ug/ml incubated for 15 hrs by agar plate reader analysis; assay type: functional; parameters: scale not given: the % may be the effect or the level left; conditions: dose 200 µg/ml
# Vibrio harveyi [6] = assay: Inhibition of biofilm formation in Vibrio harveyi MM77 assessed as inhibition of exopolysaccharides production at 200 uM incubated for 24 hrs by Fluorescence assay; assay type: functional
# Vibrio harveyi [7] = assay: Inhibition of biofilm formation in Vibrio harveyi BB152 at 200 ug/ml for 24 hrs by crystal violet assay; assay type: functional
# [8] = Inhibition of quorum-sensing system in Vibrio harveyi BB170 assessed as inhibition of QS-mediated bioluminescence at 0.02 to 200 uM incubated for 18 hrs by Luminescence assay; conditions: dose 0.02-200 µM
# Vibrio harveyi [9] = assay: Antibiofilm activity against Vibrio harveyi BB170 assessed as inhibition of biofilm formation at 200 uM by Crystal violet biofilm assay; assay type: functional
# Vibrio harveyi [10] = assay: Antibacterial activity against Vibrio harveyi MTCC 3438 assessed as bacterial growth inhibition incubated for 24 hrs by broth microdilution assay; assay type: functional
# Vibrio harveyi [11] = assay: Antibacterial activity against Vibrio harveyi MTCC 3438 assessed as reduction in cell surface hydrophobicity at 250 ug/ml for 10 mins by BATH assay; assay type: functional; conditions: MTCC 3438, 10 min
# Vibrio harveyi [12] = assay: Antibacterial activity against Vibrio harveyi MTCC 3438 infected Litopenaeus vannamei larvae assessed as increase in survival rate at 250 ug/ml and measured upto 96 hrs; assay type: functional
# [13] = Inhibition of quorum sensing system in Vibrio harveyi MTCC 3438 assessed fold decrease in luxQ expression at 250 ug/ml by qPCR assay; conditions: dose 250.0 µg/ml
# [14] = Inhibition of quorum sensing system in Vibrio harveyi MTCC 3438 assessed fold decrease in luxS expression at 250 ug/ml by qPCR assay; conditions: dose 250.0 µg/ml
# [15] = Inhibition of quorum sensing system in Vibrio harveyi MTCC 3438 assessed fold decrease in luxO expression at 250 ug/ml by qPCR assay; conditions: dose 250.0 µg/ml
# [16] = Inhibition of quorum sensing system in Vibrio harveyi MTCC 3438 assessed fold decrease in luxP expression at 250 ug/ml by qPCR assay; conditions: dose 250.0 µg/ml
# [17] = Inhibition of quorum sensing system in Vibrio harveyi MTCC 3438 assessed fold decrease in luxR expression at 250 ug/ml by qPCR assay; conditions: dose 250.0 µg/ml
# Vibrio harveyi [18] = assay: Antibiofilm activity against Vibrio harveyi MTCC 3438 assessed as inhibition of biofilm formation at 250 ug/ml for 16 hrs by crystal violet staining based spectrophotometric assay; assay type: functional
# Vibrio harveyi [19] = assay: Inhibition of biofilm formation in Vibrio harveyi MTCC 3438 assessed as reduction in exopolysaccharides production at 250 ug/ml for 24 hrs by spectrophotometric assay; assay type: functional
# [20] = Inhibition of quorum-sensing system in Vibrio harveyi assessed as inhibition of bioluminescence at 20 uM by bioluminescence assay
# Vibrio harveyi [21] = assay: Antibacterial activity against Vibrio harveyi infected […] franciscana assessed as increase in survival rate at 20 uM and measured after 60 hrs by light microscopy; assay type: functional
compound,measurement,setting,value
CCCCCCC(C)(C)c1cc(O)c2c(c1)OC(C)(C)[C@@H]1CC=C(CO)C[C@@H]21,Activity,Vibrio harveyi [1],80%
same,inhibition,[2],98%
same,inhibition,[3],95%
same,Activity,Vibrio harveyi [4],95%
same,Activity,Vibrio harveyi [5],85%
same,inhibition at 200 µM,Vibrio harveyi [6],75%
same,inhibition at 200 µg/mL,Vibrio harveyi [7],80%
same,inhibition,[8],85%
CC(=O)C(=O)C(F)CO (stereo unspecified),inhibition at 200 µM,Vibrio harveyi [9],90%
O=C(O)[C@@H]1[C@H](C(=O)O)[C@@H]2C=C[C@H]1C2,MIC,Vibrio harveyi [10],8 µg/mL
Cc1cc(C(C)(C)C)c(O)c(C(C)(C)C)c1 [BUTYLATED HYDROXYTOLUENE],inhibition at 250 µg/mL,Vibrio harveyi [11],82%
same,survival at 250 µg/mL,Vibrio harveyi [12],75%
same,fold change (FC),[13],0.5
same,fold change (FC),[14],0.9
same,fold change (FC),[15],0.1
same,fold change (FC),[16],0.7
same,fold change (FC),[17],1.9
same,inhibition at 250 µg/mL,Vibrio harveyi [18],80%
same,inhibition at 250 µg/mL,Vibrio harveyi [19],65%
O=S(=O)(c1ccc(Br)s1)n1cccn1,inhibition,[20],100%
same,survival at 20 µM,Vibrio harveyi [21],85.5%
